Patent publication US20080031866A1, “METHOD FOR MODULATING THE PHARMACOKINETICS AND METABOLISM OF A THERAPEUTIC AGENT” (priority 2006, published 2008)

Assays:
[1] = Intraduodenal dosing with and without β-glucuronidase, catheterized rat; type: in vivo; details: 10 mg/kg, rats N=6; for AUC / Cmax / concentration at 0 h / concentration at 0.25 h / concentration at 0.5 h / concentration at 1 h / concentration at 2 h / concentration at 3 h / concentration at 4 h / concentration at 5 h / concentration at 6 h: male, Sprague Dawley, rat, plasma; for AUC: read-out: AUC average ± standard deviation 0 to 6 hours; for Cmax: read-out: Cmax average ± standard deviation; for concentration at 0 h / concentration at 0.25 h / concentration at 0.5 h / concentration at 1 h / concentration at 2 h / concentration at 3 h / concentration at 4 h / concentration at 5 h / concentration at 6 h: other: intraduodenal
Description: (§1) A catheterized rat model was used in which the agent alone or agent and β-glucuronidase enzyme was administered intraduodenally or intracolonically. The intraduodenal and intracolonic dosing was intended to prevent the potential for loss of enzymatic activity when orally dosing the β-glucuronidase (e.g. by degradation in the stomach). […]
(§2) For the oral gavage dosing, Compound 1 was prepared in neat PEG-400. For the intraduodenal and intracolonic dosing solutions, Compound 1 was added to neat Tween 80, the mixture was sonicated for thirty minutes at 45° C. until Compound 1 was completely dissolved and then deionized (DI) water was added to form a solution consisting of 20% Tween 80 and 80% DI water by weight.
(§3) For the oral enzyme solutions, β-glucuronidase was added to the final formulation at a concentration of 57,600 units/ml.
(§4) For the intraduodenal and intracolonic dosing, male Sprague Dawley rats weighing 300-400 g were purchased from Charles River Labs. All rat experiments were conducted under approved animal protocols. The rats were catheterized at Charles River Labs and had one or more of the following chronic catheters for dosing and sampling: jugular/carotid, duodenal, and colonic. Rats were limited to only one GI catheter and one vascular catheter. For IV dosing, rats were purchased with jugular and carotid catheters for dosing in the jugular catheter and blood sampling through the carotid catheter. For intraduodenal/intracolonic dosing, rats had one of the GI catheters for dosing and a carotid catheter for blood sampling.
(§5) The surgeries were done two weeks prior to start of testing. Rats were fed 4 hours post dose administration. All rats were dosed without anesthesia and sacrificed at the end of the study.
(§6) A quantitative method for determining the amount of (6,7-dimethoxy-2,4-dihydro-indeno[1,2-c]pyrazol-3-yl)-(3-fluoro-phenyl)-amine Compound 1 and its major metabolites, glucuronide A (Cpd 1-GluA) and glucuronide B (Cpd 1-GluB) (see Scheme A) in rat plasma was developed using phenacetin as an internal standard. [drawing 1]
(§7) The two glucuronide conjugates were prepared and purified to permit accurate quantification of the levels of intact parent Compound 1 versus Cpd 1-GluA and Cpd 1-GluB. Each standard curve for Compound 1, Cpd 1-GluA, and Cpd 1-GluB generated from rat plasma included ten concentration levels. […] The quantitative procedure for each sample included: sample preparation, HPLC separation and mass spectrometry detection.
(§8) The rat plasma was prepared using protein precipitation techniques. Reference standards and quality control samples in rat plasma for Compound 1 were transferred to a 96 deep-well plate. The precipitation solution contained 100 ng/ml of internal standard in acetonitrile. 300 μl of precipitation solution were added to 100 μl of each standard, quality control and plasma sample. Samples were vortexed for 10 mins, then centrifuged at 4500 RPM for 10 mins. 10 μl of each sample were injected for LC/MS/MS analysis.
(§9) The HPLC column chosen for the bioanalysis was purchased from Thermo Electron (Hypersil BetaBasic C18, 5 cm×2.1 mm). The eluting solvents were composed of Solvent A: 0.1% formic acid in H2O and Solvent B: 0.1% formic acid in acetonitrile. A step gradient was used and flow rate was 300 μl/min. The total run time was 3.2 mins. Solvent B was increased from 35% at 0 min to 75% at 2.1 mins and decreased back to 35% at 2.2 mins. The retention times for Compound 1, phenacetin, Cpd 1-GluA and Cpd 1-GluB were 1.1 min, 0.9 min, 1.3 min, and 1.6 min, respectively.
(§10) API3000 with a Turbo Ionspray interface from Applied Biosystems was used for the detection of Compound 1, the internal standard and major metabolites. Electrospray ionization was performed in the positive ion mode heated nebulizer with a temperature of 300° C. LC/MS/MS chromatograms were acquired in MRM (multiple reaction mode). […]

[2] = Intracolonic dosing with and without β-glucuronidase, catheterized rat; type: in vivo; details: for AUC / Cmax / concentration at 0 h / concentration at 0.25 h / concentration at 0.5 h / concentration at 1 h / concentration at 2 h / concentration at 3 h / concentration at 4 h / concentration at 5 h / concentration at 6 h: male, Sprague Dawley, rat, plasma; for AUC / Cmax / concentration at 0 h / concentration at 0.25 h / concentration at 0.5 h / concentration at 1 h / concentration at 2 h / concentration at 3 h / concentration at 4 h / concentration at 5 h / concentration at 6 h / AUC average ± standard deviation 0 to 6 hours: 10 mg/kg, rats N=6; for AUC: read-out: AUC average ± standard deviation 0 to 6 hours; for Cmax: read-out: Cmax average ± standard deviation; for concentration at 0 h / concentration at 0.25 h / concentration at 0.5 h / concentration at 1 h / concentration at 2 h / concentration at 3 h / concentration at 4 h / concentration at 5 h / concentration at 6 h: other: intracolonic
Description: as §1, §2, §3, §4, §5, §6, §7, §8, §9, §10

[3] = Compound 1 10 mg/kg intraduodenal with β-glucuronidase
[4] = Compound 1 10 mg/kg intraduodenal without enzyme
[5] = Compound 1 10 mg/kg intracolonic with β-glucuronidase
[6] = Compound 1 10 mg/kg intracolonic without enzyme

COc1cc2c(cc1OC)-c1n[nH]c(N(c3cccc(F)c3)[C@H]3O[C@@H](C(=O)O)[C@H](O)[C@@H](O)[C@@H]3O)c1C2 [Cpd 1-GluA]
AUC [1, 3]: 8940 ± 2140 ng·h/mL
Cmax [1, 3]: 6450 ng/mL
AUC [1, 4]: 1220 ± 371 ng·h/mL
Cmax [1, 4]: 717 ± 171 ng/mL
concentration at 0 h [1, 3]: 0 ng/mL
concentration at 0.25 h [1, 3]: 6450 ng/mL
concentration at 0.5 h [1, 3]: 4820 ng/mL
concentration at 1 h [1, 3]: 3860 ng/mL
concentration at 2 h [1, 3]: 812 ± 426 ng/mL
concentration at 3 h [1, 3]: 462 ± 208 ng/mL
concentration at 4 h [1, 3]: 480 ± 107 ng/mL
concentration at 5 h [1, 3]: 420 ± 74.1 ng/mL
concentration at 6 h [1, 3]: 462 ± 113 ng/mL
concentration at 0 h [1, 4]: 0 ng/mL
concentration at 0.25 h [1, 4]: 666 ± 198 ng/mL
concentration at 0.5 h [1, 4]: 687 ± 178 ng/mL
concentration at 1 h [1, 4]: 463 ± 164 ng/mL
concentration at 2 h [1, 4]: 118 ± 36.3 ng/mL
concentration at 3 h [1, 4]: 66.6 ± 42 ng/mL
concentration at 4 h [1, 4]: 88.2 ± 53.9 ng/mL
concentration at 5 h [1, 4]: 83.1 ± 23.2 ng/mL
concentration at 6 h [1, 4]: 90.2 ± 28.1 ng/mL
AUC average ± standard deviation 0 to 6 hours [1, 3]: 8,723.2 ± 2,132.6 ng · hr/ml
AUC average ± standard deviation 0 to 6 hours [1, 4]: 1,172.7 ± 361.2 ng · hr/ml
AUC [2, 5]: 1770 ng·h/mL
Cmax [2, 5]: 755 ± 509 ng/mL
AUC [2, 6]: 5060 ng·h/mL
Cmax [2, 6]: 1550 ± 1050 ng/mL
concentration at 0 h [2, 5]: 0 ng/mL
concentration at 0.25 h [2, 5]: 6450 ng/mL
concentration at 0.5 h [2, 5]: 4820 ng/mL
concentration at 1 h [2, 5]: 3860 ng/mL
concentration at 2 h [2, 5]: 812 ± 426 ng/mL
concentration at 3 h [2, 5]: 462 ± 208 ng/mL
concentration at 4 h [2, 5]: 480 ± 107 ng/mL
concentration at 5 h [2, 5]: 420 ± 74.1 ng/mL
concentration at 6 h [2, 5]: 462 ± 113 ng/mL
concentration at 0 h [2, 6]: 0 ng/mL
concentration at 0.25 h [2, 6]: 666 ± 198 ng/mL
concentration at 0.5 h [2, 6]: 6450 ng/mL
concentration at 1 h [2, 6]: 4820 ng/mL
concentration at 2 h [2, 6]: 3860 ng/mL
concentration at 3 h [2, 6]: 66.6 ± 42 ng/mL
concentration at 4 h [2, 6]: 88.2 ± 53.9 ng/mL
concentration at 5 h [2, 6]: 83.1 ± 23.2 ng/mL
concentration at 6 h [2, 6]: 90.2 ± 28.1 ng/mL
AUC intracolonic relative to intraduodenal ([2]; no enzyme present): 4.3 times
AUC average ± standard deviation 0 to 6 hours [2, 5]: 1,767.6 ± 1,282.3 ng · hr/ml
AUC average ± standard deviation 0 to 6 hours [2, 6]: 5061.9 ± 1,656.0 ng · hr/ml
